SMILES strings stand for the structures. Counter-ions that a name gives are not always drawn.

A word on the IC50: it is the concentration needed to halve the response being measured.

The first assay deals with Plasmodium falciparum 3D7 strain. The assay can be described thus: P. falciparum 3D7 asexual blood stage assay (SYBR green readout). It is filed as cell-based. To be noted: P. falciparum 3D7 in human erythrocytes, 72 h incubation, SYBR green fluorescence; read-out: IC50. The procedure: Asexual Blood Stage Assay
The assay used to measure the effect of test compounds on a bloodstream stage of Plasmodium falciparum: 3D7 strain employs SYBR green as the readout. This is a dye that binds to double stranded deoxyribonucleic acid (DNA) with a resulting increase in fluorescence, allowing detection of P. falciparum DNA in infected erythrocytes, and thereby providing a measure of parasite growth and propagation.
P. falciparum Culture Maintenance
Erythrocytes (A+ blood) were prepared for both parasite culture and assay by washing 4 times with incomplete media (15.9 g RPMI 1640 (25 mM HEPES, L-glutamine), 1 g NaHCO3, 2 g glucose, 400 μL gentacin (500 mg/mL), 2 mL hypoxanthine solution (13.6 g/L in 0.1M NaOH pH 7.3) in 1 litre of media). The cells were centrifuged at 1800 g for 5 minutes, before decanting the supernatant and re-suspending in fresh incomplete media. On the final wash, the cells were re-suspended in complete media (incomplete media with 5 g/L AlbumaxII), and centrifuged at 1800 g for 3 minutes. This cell sediment was treated as 100% haematocrit.
P. falciparum 3D7 was cultured in erythrocytes at 5% haematocrit in complete media at 37° C. (1% O2, 3% CO2, balance N2). Cultures were split on a weekly basis to achieve a 1% parasitaemia in erythrocites at 5% haematocrit in fresh media. Culture media is replaced by fresh media every other day (2 times during the week).
On day 1, test compounds were added to assay plates using Echo dispensing technology ([…] and 20 points titration). 50 nL of each compound dilution was added to 50 μL of culture (5% haematocrit, 0.5% parasitaemia) and incubated for 72 h at 37° C. (1% O2, 3% CO2, balance N2). Final concentrations of test compounds ranged from 50,000 nM to 15 nM, in […].
On day 4, 10 μL SYBR green (Invitrogen S7563 supplied as 10,000× concentrate in DMSO) pre-diluted to 3× concentrate with Lysis buffer (20 mM Tris pH 7.9, 5% EDTA, 0.16% w/v, 1.6% TX100 v/v) was added to the cultures and incubated in the dark, overnight, at room temperature.
On day 5, fluorescent signal was measured using a BioTek plate reader (excitation 485 nm, emission 528 nm). All data were processed using IDBS ActivityBase. Raw data were converted into percent inhibition through linear regression by setting the high inhibition control (mefloquine) as 100% and the no inhibition control (DMSO) as 0%. Quality control criteria for passing plates were as follows: Z′>0.5, S:B>3, 30% CV(no inhibition control)<15. The formula used to calculate Z′ is: […]
All EC50 curve fitting was undertaken using the following bi-phasic two site dose response using XLfit model 300 (IDBS):
where A=100 minus the top of the upper curve 1 and the bottom of lower curve; B=Hill slope; log(C)=IC50 concentration at lower site; log(D)=IC50 concentration at upper site; x=inhibitor concentration; and y=% inhibition.
As for `COc1ncccc1C(=O)Nc1cccc([C@]2(C)CC(=O)N([C@@H]3CCO[C@H](C)C3)C(=N)N2)c1Cl` (relative stereo) [Example 30, N-(2-Chloro-3-{(4S)-2-imino-4-methyl-1-[(2R*,4R*)-2-methyl-etrahydropyran-4-yl]-6-oxo-hexahydropyrimidin-4-yl]phenyl)-2-methoxypyridine-3-carboxamide trifluoroacetic acid salt], the IC50 stood at 0.015 µM.

Still in this assay, the particulars now being: Plasmodium falciparum, 3D7, Erythrocyte, 72 h.
As to `C[C@@H]1C[C@H](N2C(=N)N[C@](C)(c3cccc(NC(=O)c4ncccc4C(F)(F)F)c3Cl)CC2=O)CCO1` (relative stereo) [Example 49, N-(2-Chloro-3-{(4S)-2-imino-4-methyl-1-[(2R*,4R*)-2-methyl-tetrahydropyran-4-yl]-6-oxo-hexahydropyrimidin-4-yl]phenyl)-3-(trifluoromethyl)pyridine-2-carboxamide trifluoroacetic acid salt], inhibition was half-maximal at 0.017 µM (IC50).
Same read-out and setting: under `C[C@@H]1C[C@H](N2C(=N)N[C@](C)(c3cccc(NC(=O)c4cccc(C(F)(F)F)c4)c3Cl)CC2=O)CCO1` (relative stereo) [Example 41, N-(2-Chloro-3-{(4S)-2-imino-4-methyl-1-[(2R*,4R*)-2-methyl-tetrahydropyran-4-yl]-6-oxo-hexahydropyrimidin-4-yl}phenyl)-3-(trifluoromethyl)benzamide trifluoroacetic acid salt] stands 0.015 µM.
Still for that read-out and setting: then `C[C@@H]1C[C@H](N2C(=N)N[C@](C)(c3cccc(NC(=O)c4ccc(C5CC5)nc4)c3Cl)CC2=O)CCO1` (relative stereo) [Example 53, N-(2-Chloro-3-{(4S)-2-imino-4-methyl-1-[(2R*,4R*)-2-methyl-tetrahydropyran-4-yl]-6-oxo-hexahydropyrimidin-4-yl}phenyl)-6-cyclopropylpyridine-3-carboxamide hydrochloride], with 0.63 µM.
Take `C[C@@H]1C[C@H](N2C(=N)N[C@](C)(c3cccc(NC(=O)c4ccc(Cl)cn4)c3Cl)CC2=O)CCO1` (relative stereo) [Example 63, 5-Chloro-N-(2-chloro-3-{(4S)-2-imino-4-methyl-1-[(2R*,4R*)-2-methyltetrahydropyran-4-yl]-6-oxo-hexahydropyrimidin-4-yl]phenyl)-pyridine-2-carboxamide hydrochloride]: the IC50 turned out to be 0.041 µM.
In the case of `C[C@@H]1C[C@H](N2C(=N)N[C@](C)(c3cccc(NC(=O)c4ccncn4)c3Cl)CC2=O)CCO1` (relative stereo) [Example 16, N-(2-Chloro-3-{(4S)-2-imino-4-methyl-1-[(2R*,4R*)-2-methyl-tetrahydropyran-4-yl]-6-oxo-hexahydropyrimidin-4-yl}phenyl)-pyrimidine-4-carboxamide hydrochloride], the IC50 was 0.023 µM.
In the case of `C[C@@H]1C[C@H](N2C(=N)N[C@](C)(c3cccc(NC(=O)c4cnccc4C(F)(F)F)c3Cl)CC2=O)CCO1` (relative stereo) [Example 56, N-(2-Chloro-3-{(4S)-2-imino-4-methyl-1-[(2R*,4R*)-2-methyl-tetrahydropyran-4-yl]-6-oxo-hexahydropyrimidin-4-yl}phenyl)-4-(trifluoromethyl)pyridine-3-carboxamide hydrochloride], the 50% inhibitory concentration (IC50) was 0.021 µM.
`C[C@@H]1C[C@H](N2C(=N)N[C@](C)(c3cccc(NC(=O)c4ncc(F)cc4F)c3Cl)CC2=O)CCO1` (relative stereo) [Example 100, N-(2-Chloro-3-{(4S)-2-imino-4-methyl-1-[(2R*,4R*)-2-methyl-tetrahydropyran-4-yl]-6-oxo-hexahydropyrimidin-4-yl}phenyl)-3,5-difluoropyridine-2-carboxamide hydrochloride]: the IC50 was determined as 0.033 µM.

The same assay, now with this note: Plasmodium falciparum, Erythrocyte; P. falciparum 3D7 in human erythrocytes, 72 h incubation, SYBR green fluorescence; read-out: IC50.
For `C[C@@H]1C[C@H](N2C(=N)N[C@](C)(c3cccc(NC(=O)c4cc(F)c(F)cc4F)c3Cl)CC2=O)CCO1` (relative stereo) [Example 64, N-(2-Chloro-3-{(4S)-2-imino-4-methyl-1-[(2,R*,4R*)-2-methyl-tetrahydropyran-4-yl]-6-oxo-hexahydropyrimidin-4-yl}phenyl)-2,4,5-trifluorobenzamide hydrochloride], the IC50 is 0.013 µM.
